From patent publication US10017468B2, “Substituted pyrrolidines as G-protein coupled receptor 43 agonists” (Ogeda SA, priority 2009, dated 2018)

Tested on: ob/ob mice
Assay: Oral glucose tolerance test (OGTT) in ob/ob mice
Assay type: in vivo
Conditions: bi-daily 50 mg/kg during 28 days, AUC from -15 to 120 min
Experimental: Ob/ob or obese mice are leptin-deficient mice that eat excessively and become profoundly obese, hyperinsulinemic and hyperglycemic. It is an animal model of type II diabetes. Such model can be used for oral glucose tolerance tests (OGTTs). A total of sixteen (16) male ob/ob mice (6 weeks of age) were obtained from Harlan. Upon arrival to the animal unit, mice were housed 4 per cage in rodent cages mounted with feeders containing regular chow. The mice were put in a 12/12 h light-dark cycle (light from 0600-1800 h) with controlled temperature conditions (22-24° C.). Fed blood glucose and body-weight was measured on day −2 in the morning between 08:00 AM and 09:00 AM. Animals were randomized into 2 groups according to fed glucose levels (on day −2). […]
Day 1 is the first day of dosing. […] At −15 min, blood glucose was measured (using a glucose analyzer) and animals were dosed with compounds of the invention or vehicle. At time point 0, blood glucose was measured again and glucose was administered by oral gavage (1 g/kg glucose). The blood glucose was then measured at time points 15, 30, 45, 60 and 120 minutes. […] The percentages of AUC inhibition induced by compounds of the invention were calculated as follows: % of AUC inhibition: [1−(AUC compound/AUC vehicule)]*100.

SMILES: COc1ccccc1-c1ccc(C(=O)N2[C@@H](c3ccccc3Cl)CC[C@H]2C(=O)O)cc1 [Compound 1, (2S,5R)-5-(2-chlorophenyl)-1-(2′-methoxy-[1,1′-biphenyl]-4-carbonyl)pyrrolidine-2-carboxylic acid]
- % of AUC inhibition (blood glucose, OGTT): 40%
